Results reported in ChEMBL document CHEMBL3045275, “Synthesis and antibacterial activity of some new hydrazones” (2013).

Columns and labels:
Type in all cases: functional
Settings in all cases: read-out: DIZ
[1] = test system: Staphylococcus aureus; assay: Antibacterial activity against Staphylococcus aureus assessed as diameter of growth inhibition zone at 50 ug/ml after 24 hr by agar diffusion method
[2] = test system: Pseudomonas aeruginosa; assay: Antibacterial activity against Pseudomonas aeruginosa assessed as diameter of growth inhibition zone at 100 ug/ml after 24 hr by agar diffusion method
[3] = test system: Staphylococcus aureus; assay: Antibacterial activity against Staphylococcus aureus assessed as diameter of growth inhibition zone at 100 ug/ml after 24 hr by agar diffusion method
[4] = test system: Pseudomonas aeruginosa; assay: Antibacterial activity against Pseudomonas aeruginosa assessed as diameter of growth inhibition zone at 50 ug/ml after 24 hr by agar diffusion method
[5] = test system: Proteus mirabilis; assay: Antibacterial activity against Proteus mirabilis assessed as diameter of growth inhibition zone at 100 ug/ml after 24 hr by agar diffusion method
[6] = test system: Bacillus subtilis; assay: Antibacterial activity against Bacillus subtilis assessed as diameter of growth inhibition zone at 100 ug/ml after 24 hr by agar diffusion method
[7] = test system: Bacillus subtilis; assay: Antibacterial activity against Bacillus subtilis assessed as diameter of growth inhibition zone at 50 ug/ml after 24 hr by agar diffusion method
[8] = test system: Escherichia coli; assay: Antibacterial activity against Escherichia coli assessed as diameter of growth inhibition zone at 50 ug/ml after 24 hr by agar diffusion method
[9] = test system: Salmonella typhi; assay: Antibacterial activity against Salmonella enterica subsp. enterica serovar Typhi assessed as diameter of growth inhibition zone at 50 ug/ml after 24 hr by agar diffusion method
[10] = test system: Proteus mirabilis; assay: Antibacterial activity against Proteus mirabilis assessed as diameter of growth inhibition zone at 50 ug/ml after 24 hr by agar diffusion method
[11] = test system: Escherichia coli; assay: Antibacterial activity against Escherichia coli assessed as diameter of growth inhibition zone at 100 ug/ml after 24 hr by agar diffusion method
[12] = test system: Salmonella typhi; assay: Antibacterial activity against Salmonella enterica subsp. enterica serovar Typhi assessed as diameter of growth inhibition zone at 100 ug/ml after 24 hr by agar diffusion method

With `C(=C\c1ccccc1)/C(=N\Nc1nc(-c2ccccc2)cs1)c1ccccc1` the zone of inhibition at 50 µg/mL [1] was 6.5 mm, the zone of inhibition at 100 µg/mL [2] was 8 mm and the zone of inhibition at 100 µg/mL [3] was 8.5 mm. It also gave a zone of inhibition at 50 µg/mL [4] of 6 mm, a zone of inhibition at 100 µg/mL [5] of 8.5 mm and a zone of inhibition at 100 µg/mL [6] of 8.5 mm. It also gave a zone of inhibition at 50 µg/mL [7] of 6.5 mm, a zone of inhibition at 50 µg/mL [8] of 7 mm and a zone of inhibition at 50 µg/mL [9] of 6 mm. The zone of inhibition at 50 µg/mL [10] was 6.5 mm, the zone of inhibition at 100 µg/mL [11] was 8.5 mm and the zone of inhibition at 100 µg/mL [12] was 8 mm.
Work on `CC(/C=C/c1ccccc1)=N\Nc1ccc(-c2nc3ccccc3[nH]2)cc1` yielded a zone of inhibition at 50 µg/mL [1] of 6.5 mm, a zone of inhibition at 100 µg/mL [2] of 8 mm and a zone of inhibition at 100 µg/mL [3] of 8 mm. For the same molecule, the zone of inhibition at 50 µg/mL [4] was 6 mm, the zone of inhibition at 100 µg/mL [5] was 8.5 mm and the zone of inhibition at 100 µg/mL [6] was 8.5 mm. For the same molecule, the zone of inhibition at 50 µg/mL [7] was 6 mm, the zone of inhibition at 50 µg/mL [8] was 6.5 mm and the zone of inhibition at 50 µg/mL [9] was 6 mm. For the same molecule, the zone of inhibition at 50 µg/mL [10] was 6.5 mm, the zone of inhibition at 100 µg/mL [11] was 9 mm and the zone of inhibition at 100 µg/mL [12] was 8 mm.
For `C(=C\c1ccccc1)/C(=N/Nc1ccc(-c2nc3ccccc3[nH]2)cc1)c1ccccc1`, the zone of inhibition at 50 µg/mL [1] was 6.5 mm, the zone of inhibition at 100 µg/mL [2] was 8.5 mm and the zone of inhibition at 100 µg/mL [3] was 9 mm. For the same molecule, the zone of inhibition at 50 µg/mL [4] was 6 mm, the zone of inhibition at 100 µg/mL [5] was 8.5 mm and the zone of inhibition at 100 µg/mL [6] was 8.5 mm. For the same molecule, the zone of inhibition at 50 µg/mL [7] was 6 mm, the zone of inhibition at 50 µg/mL [8] was 6 mm and the zone of inhibition at 50 µg/mL [9] was 6.5 mm. For the same molecule, the zone of inhibition at 50 µg/mL [10] was 6 mm, the zone of inhibition at 100 µg/mL [11] was 8.5 mm and the zone of inhibition at 100 µg/mL [12] was 8 mm.
`CC(/C=C/c1ccccc1)=N\NC(=O)c1ccncc1` gave a zone of inhibition at 50 µg/mL [1] of 6 mm, a zone of inhibition at 100 µg/mL [2] of 8 mm and a zone of inhibition at 100 µg/mL [3] of 8.5 mm. The zone of inhibition at 50 µg/mL [4] was 6 mm, the zone of inhibition at 100 µg/mL [5] was 8.5 mm and the zone of inhibition at 100 µg/mL [6] was 8.5 mm. The zone of inhibition at 50 µg/mL [7] was 6 mm, the zone of inhibition at 50 µg/mL [8] was 6 mm and the zone of inhibition at 50 µg/mL [9] was 6 mm. The zone of inhibition at 50 µg/mL [10] was 6 mm, the zone of inhibition at 100 µg/mL [11] was 8 mm and the zone of inhibition at 100 µg/mL [12] was 8.5 mm.
`O=C(N/N=C(/C=C/c1ccccc1)c1ccccc1)c1ccncc1` was tested, and the zone of inhibition at 50 µg/mL [1] was 6 mm, the zone of inhibition at 100 µg/mL [2] was 8.5 mm and the zone of inhibition at 100 µg/mL [3] was 8 mm. For the same molecule, the zone of inhibition at 50 µg/mL [4] was 6 mm, the zone of inhibition at 100 µg/mL [5] was 8 mm and the zone of inhibition at 100 µg/mL [6] was 8.5 mm. For the same molecule, the zone of inhibition at 50 µg/mL [7] was 6 mm, the zone of inhibition at 50 µg/mL [8] was 6 mm and the zone of inhibition at 50 µg/mL [9] was 6 mm. It also gave a zone of inhibition at 50 µg/mL [10] of 6.5 mm, a zone of inhibition at 100 µg/mL [11] of 8 mm and a zone of inhibition at 100 µg/mL [12] of 8 mm.
With `O=C(O)c1cn(C2CC2)c2cc(N3CCNCC3)c(F)cc2c1=O` [CIPROFLOXACIN] the zone of inhibition at 50 µg/mL [1] was 18 mm, the zone of inhibition at 50 µg/mL [4] was 19 mm and the zone of inhibition at 50 µg/mL [7] was 18 mm. It also gave a zone of inhibition at 50 µg/mL [8] of 18.5 mm, a zone of inhibition at 50 µg/mL [9] of 18 mm and a zone of inhibition at 50 µg/mL [10] of 19.5 mm.
